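Five concentrations, 48 hours, 96-well plates. TGI: concentration producing complete growth inhibition.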
What was measured:
Experiment in all cases: growth of human tumour cells (NCI), 48 h
LOX IMVI melanoma = system: LOX IMVI melanoma
K-562 leukemia = system: K-562 leukemia
LXFL 529 NSCLC = system: LXFL 529 NSCLC
ACHN renal = system: ACHN renal
SF-295 CNS = system: SF-295 CNS
UACC-62 melanoma = system: UACC-62 melanoma
SNB-19 CNS = system: SNB-19 CNS
SF-539 CNS = system: SF-539 CNS
HT29 colon = system: HT29 colon
U251 CNS = system: U251 CNS
SN12C renal = system: SN12C renal
KM12 colon = system: KM12 colon
KM20L2 colon = system: KM20L2 colon
SW-620 colon = system: SW-620 colon
NCI-H460 lung = system: NCI-H460 lung
SNB-78 CNS = system: SNB-78 CNS
HCT-116 colon = system: HCT-116 colon
HCT-15 colon = system: HCT-15 colon
HOP-92 NSCLC = system: HOP-92 NSCLC
A498 renal = system: A498 renal
EKVX NSCLC = system: EKVX NSCLC
TK-10 renal = system: TK-10 renal
OVCAR-8 ovarian = system: OVCAR-8 ovarian
NCI-H226 lung = system: NCI-H226 lung
CAKI-1 renal = system: CAKI-1 renal
RXF 393 renal = system: RXF 393 renal
786-0 renal = system: 786-0 renal
COLO 205 colon = system: COLO 205 colon
M14 melanoma = system: M14 melanoma
SK-MEL-2 melanoma = system: SK-MEL-2 melanoma
HCC-2998 colon = system: HCC-2998 colon
UO-31 renal = system: UO-31 renal
HOP-18 NSCLC = system: HOP-18 NSCLC
SK-OV-3 ovarian = system: SK-OV-3 ovarian
UACC-257 melanoma = system: UACC-257 melanoma
MOLT-4 leukemia = system: MOLT-4 leukemia
RPMI-8226 leukemia = system: RPMI-8226 leukemia
SNB-75 CNS = system: SNB-75 CNS
DLD-1 colon = system: DLD-1 colon
SR leukemia = system: SR leukemia
SK-MEL-28 melanoma = system: SK-MEL-28 melanoma
OVCAR-5 ovarian = system: OVCAR-5 ovarian
NCI-H23 lung = system: NCI-H23 lung
A549 NSCLC = system: A549 NSCLC
RXF-631 renal = system: RXF-631 renal
HL-60(TB) leukemia = system: HL-60(TB) leukemia
SF-268 CNS = system: SF-268 CNS
M19-MEL melanoma = system: M19-MEL melanoma
OVCAR-3 ovarian = system: OVCAR-3 ovarian
MALME-3M melanoma = system: MALME-3M melanoma
IGROV1 ovarian = system: IGROV1 ovarian
OVCAR-4 ovarian = system: OVCAR-4 ovarian
CCRF-CEM leukemia = system: CCRF-CEM leukemia
NCI-H522 lung = system: NCI-H522 lung
SK-MEL-5 melanoma = system: SK-MEL-5 melanoma
HOP-62 NSCLC = system: HOP-62 NSCLC
XF 498 CNS = system: XF 498 CNS
DMS 273 small cell lung = system: DMS 273 small cell lung
DMS 114 small cell lung = system: DMS 114 small cell lung

## CC(C)(C)C#C[P+](c1ccccc1)(c1ccccc1)c1ccccc1
LOX IMVI melanoma
  TGI: 1.4 µM
K-562 leukemia
  TGI: 4.83 µM
LXFL 529 NSCLC
  TGI: 0.67 µM
ACHN renal
  TGI: 10.3 µM
SF-295 CNS
  TGI: 1.49 µM
UACC-62 melanoma
  TGI: 0.979 µM
SNB-19 CNS
  TGI: 1.51 µM
SF-539 CNS
  TGI: 1.39 µM
HT29 colon
  TGI: 1.11 µM
U251 CNS
  TGI: 1.32 µM
SN12C renal
  TGI: 0.877 µM
KM12 colon
  TGI: 0.687 µM
KM20L2 colon
  TGI: 1.19 µM
SW-620 colon
  TGI: 0.843 µM
NCI-H460 lung
  TGI: 0.475 µM
SNB-78 CNS
  TGI: 1.35 µM
HCT-116 colon
  TGI: 0.95 µM
HCT-15 colon
  TGI: 5.9 µM
HOP-92 NSCLC
  TGI: 0.689 µM
A498 renal
  TGI: 1.35 µM
EKVX NSCLC
  TGI: 4.1 µM
TK-10 renal
  TGI: 3.48 µM
OVCAR-8 ovarian
  TGI: 1.67 µM
NCI-H226 lung
  TGI: 0.984 µM
CAKI-1 renal
  TGI: 2.91 µM
RXF 393 renal
  TGI: 1.37 µM
786-0 renal
  TGI: 1.51 µM
COLO 205 colon
  TGI: 0.397 µM
M14 melanoma
  TGI: 1.21 µM
SK-MEL-2 melanoma
  TGI: 1.45 µM
HCC-2998 colon
  TGI: 0.986 µM
UO-31 renal
  TGI: 7.28 µM
HOP-18 NSCLC
  TGI: 6.34 µM
SK-OV-3 ovarian
  TGI: 1.81 µM
UACC-257 melanoma
  TGI: 2.07 µM
MOLT-4 leukemia
  TGI: 1.57 µM
RPMI-8226 leukemia
  TGI: 0.212 µM
SNB-75 CNS
  TGI: 0.553 µM
DLD-1 colon
  TGI: 2.5 µM
SR leukemia
  TGI: 0.611 µM
SK-MEL-28 melanoma
  TGI: 1.46 µM
OVCAR-5 ovarian
  TGI: 2.4 µM
NCI-H23 lung
  TGI: 1.38 µM
A549 NSCLC
  TGI: 1.91 µM
RXF-631 renal
  TGI: 2.63 µM
HL-60(TB) leukemia
  TGI: 0.0865 µM
SF-268 CNS
  TGI: 1.48 µM
M19-MEL melanoma
  TGI: 1.14 µM
OVCAR-3 ovarian
  TGI: 1.32 µM
MALME-3M melanoma
  TGI: 1.68 µM
IGROV1 ovarian
  TGI: 2.23 µM
OVCAR-4 ovarian
  TGI: 1.42 µM
CCRF-CEM leukemia
  TGI: 0.699 µM
NCI-H522 lung
  TGI: 0.448 µM
SK-MEL-5 melanoma
  TGI: 0.634 µM
HOP-62 NSCLC
  TGI: 1.79 µM

## COC1CCC(=C2C(=O)OC(C)(C)OC2=O)N1 (stereo not drawn)
LOX IMVI melanoma
  TGI: > 100 µM
K-562 leukemia
  TGI: > 100 µM
LXFL 529 NSCLC
  TGI: > 100 µM
ACHN renal
  TGI: > 100 µM
XF 498 CNS
  TGI: > 100 µM
SF-295 CNS
  TGI: > 100 µM
DMS 273 small cell lung
  TGI: > 100 µM
UACC-62 melanoma
  TGI: > 100 µM
SNB-19 CNS
  TGI: > 100 µM
SF-539 CNS
  TGI: > 100 µM
HT29 colon
  TGI: > 100 µM
U251 CNS
  TGI: > 100 µM
SN12C renal
  TGI: > 100 µM
KM12 colon
  TGI: > 100 µM
KM20L2 colon
  TGI: > 100 µM
SW-620 colon
  TGI: > 100 µM
NCI-H460 lung
  TGI: > 100 µM
HCT-116 colon
  TGI: > 100 µM
DMS 114 small cell lung
  TGI: > 100 µM
HCT-15 colon
  TGI: > 100 µM
EKVX NSCLC
  TGI: > 100 µM
TK-10 renal
  TGI: > 100 µM
OVCAR-8 ovarian
  TGI: > 100 µM
NCI-H226 lung
  TGI: > 100 µM
CAKI-1 renal
  TGI: > 100 µM
RXF 393 renal
  TGI: > 100 µM
786-0 renal
  TGI: > 100 µM
COLO 205 colon
  TGI: > 100 µM
M14 melanoma
  TGI: > 100 µM
SK-MEL-2 melanoma
  TGI: > 100 µM
HCC-2998 colon
  TGI: > 100 µM
UO-31 renal
  TGI: > 100 µM
HOP-18 NSCLC
  TGI: > 100 µM
SK-OV-3 ovarian
  TGI: > 100 µM
UACC-257 melanoma
  TGI: > 100 µM
MOLT-4 leukemia
  TGI: > 100 µM
RPMI-8226 leukemia
  TGI: > 100 µM
SNB-75 CNS
  TGI: > 100 µM
DLD-1 colon
  TGI: > 100 µM
SK-MEL-28 melanoma
  TGI: > 100 µM
OVCAR-5 ovarian
  TGI: > 100 µM
NCI-H23 lung
  TGI: > 100 µM
A549 NSCLC
  TGI: > 100 µM
HL-60(TB) leukemia
  TGI: > 100 µM
SF-268 CNS
  TGI: > 100 µM
M19-MEL melanoma
  TGI: > 100 µM
MALME-3M melanoma
  TGI: > 100 µM
IGROV1 ovarian
  TGI: > 100 µM
OVCAR-4 ovarian
  TGI: > 100 µM
CCRF-CEM leukemia
  TGI: > 100 µM
NCI-H522 lung
  TGI: > 100 µM
HOP-62 NSCLC
  TGI: > 100 µM

Source: PubChem BioAssay (NCI)
